Assays:
CDK7/Cyclin H/MNAT1 = CDK7/Cyclin H/MNAT1 (Homo sapiens, UniProt P50613); assay: Inhibition of CDK7/Cyclin H/MNAT1 kinase activity (ADP-Glo); format: biochemical; details: mean value from several measurements; read-out: IC50 CDK7/Cyclin H/MNAT
Outline: (§1)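 ADP-Glo luminescence quantified ATP consumption after a 40-60 minute, 25° C. reaction with ATP plus CDKtide, Histone H1 or PDKtide, following a 10-minute compound–kinase preincubation in DTT-supplemented kinase buffer A. Compounds spanned 11 concentrations from 50 μM in 4-fold dilutions; IC50 fitted to a four-parameter model.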

CDK2/Cyclin A = CDK2/Cyclin A (Homo sapiens, UniProt P24941); assay: Inhibition of CDK2/Cyclin A kinase activity (ADP-Glo); format: biochemical; details: mean value from several measurements; read-out: IC50 CDK2/Cyclin A
Outline: as §1

CDK9/Cyclin K = CDK9/Cyclin K (Homo sapiens, UniProt P50750); assay: Inhibition of CDK9/Cyclin K kinase activity (ADP-Glo); format: biochemical; details: mean value from several measurements; read-out: IC50 CDK9/Cyclin K
Sequence of CDK9/Cyclin K (P50750 whole entry): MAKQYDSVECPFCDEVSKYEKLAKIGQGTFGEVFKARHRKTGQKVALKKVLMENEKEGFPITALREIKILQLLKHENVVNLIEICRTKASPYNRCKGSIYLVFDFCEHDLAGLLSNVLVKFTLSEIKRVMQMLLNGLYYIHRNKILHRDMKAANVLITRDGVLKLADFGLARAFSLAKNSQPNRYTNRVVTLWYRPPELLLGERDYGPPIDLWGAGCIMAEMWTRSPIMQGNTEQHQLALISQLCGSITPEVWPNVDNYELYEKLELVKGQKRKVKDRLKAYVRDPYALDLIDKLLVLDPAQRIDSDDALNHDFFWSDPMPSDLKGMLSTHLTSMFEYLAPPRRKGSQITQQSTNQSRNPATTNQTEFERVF
Sequence of CDK9/Cyclin K (O75909 whole entry partner): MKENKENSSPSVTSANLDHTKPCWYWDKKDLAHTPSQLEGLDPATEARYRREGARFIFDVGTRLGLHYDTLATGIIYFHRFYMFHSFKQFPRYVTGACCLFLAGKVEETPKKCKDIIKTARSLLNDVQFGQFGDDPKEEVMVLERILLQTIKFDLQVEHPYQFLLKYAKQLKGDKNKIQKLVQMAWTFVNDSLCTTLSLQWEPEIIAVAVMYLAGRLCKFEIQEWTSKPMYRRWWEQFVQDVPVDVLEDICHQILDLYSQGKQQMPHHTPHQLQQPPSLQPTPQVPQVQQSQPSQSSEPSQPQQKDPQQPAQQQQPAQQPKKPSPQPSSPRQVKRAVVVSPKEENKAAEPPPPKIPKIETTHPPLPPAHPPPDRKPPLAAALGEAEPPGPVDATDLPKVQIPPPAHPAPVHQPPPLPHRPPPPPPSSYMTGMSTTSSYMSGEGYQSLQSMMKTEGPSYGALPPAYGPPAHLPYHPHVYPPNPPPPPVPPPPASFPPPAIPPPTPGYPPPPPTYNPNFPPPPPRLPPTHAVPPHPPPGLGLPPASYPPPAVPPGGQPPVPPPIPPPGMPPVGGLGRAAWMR
Outline: as §1

[1] = tested on: MDA-MB-468 (triple negative breast cancer); assay: Antiproliferative assay on MDA-MB-468 cells (AlamarBlue, 96 h); format: cell-based; details: Homo sapiens, mean value from several measurements
[2] = tested on: NCl-H82 (small cell lung cancer); assay: Antiproliferative assay on NCl-H82 cells (AlamarBlue, 120 h); format: cell-based; details: mean value from several measurements
Method: The antiproliferative activity of CDK7 inhibitors according to the present invention was evaluated in a cell test using continuous cell cultures: MDA-MB-468 (triple negative breast cancer, ATCC® HTB-132™) and NCl-H82 (small cell lung cancer, ATCC® HTB-175™) using a viable AlamarBlue dye (Thermo Fisher Scientific Inc, order no. DAL1100). The cells were grown in DMEM (PanEco, order no. C330π) and RPMI-1640 (PanEco, order no. C330π), respectively. The basal growth medium was enriched with L-glutamine at a concentration of 2 mM (PanEco, order no. Φ032) and 10% fetal bovine serum (Gibco, order no. 16140-071). The night before measurement, MDA-MB-468 adherent cells were detached from plastic with a solution of trypsin-EDTA (PanEco, order no. Π039π), the solution was then inactivated by a DMEM complete medium, centrifuged at 1000 RPM (Eppendorf, 5804 R), a suspension of cells was prepared in a DMEM complete medium, introduced into 96-well culture plates (Corning Inc, order no. 3599) at 8×10^3 cells in 100 μl of medium per well. The next day, test compounds were dissolved in DMSO and diluted with a DMEM complete medium to a final concentration ranging from 50 μM to 10 pM. Diluted compounds in a volume of 50 μl were introduced into the plate wells with cells in triplicates (the final concentration of DMSO was no more than 1%) and incubated at 37° C. in an incubator with 5% CO2 for 96 hours. NCl-H82 suspension cell line was prepared on the day of the analysis. 10×10^3 cells in 100 μl of an RPMI-1640 complete medium were added to each well of a 96-well plate. The procedure for sample dilution is as described above. Cells with test compounds were incubated at 37° C. in an incubator with 5% CO2 for 120 hours. Following incubation, […] of AlamarBlue reagent (Thermo Fisher Scientific Inc., order no. DAL1100) was added to the wells, the contents of the plates were stirred in an orbital shaker (Biosan, Latvia), then further incubated for 5.5-6 hours at 37° C. in an incubator with 5% CO2. The number of viable cells was detected using the Infinite M200Pro microplate spectrophotometer (Tecan Group Ltd, Switzerland) by way of measuring a fluorescent signal at an excitation wavelength (λEx) of 540 nm and an emission wavelength (λEm) of 590 nm.
IC50 value was calculated using the Magellan software (Tecan Group Ltd, Switzerland) by approximating experimental points by four-parameter model with the optimization by Levenberg-Marquardt: […]

[3] = General cytotoxicity on primary differentiated HepaRG cells (72 h); format: cell-based; details: human, general toxicity, mean value from several measurements
Outline: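 Test compounds spanning 200 μM to 0.2 nM were incubated for 72 hours with primary differentiated HepaRG cells. Cells had been kept one week in supplemented hepatic medium and seeded the night before at 25×10^3 per well, and viability was then measured.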

[4] = Passive membrane permeability through PAMPA artificial membrane, pH 7.4; format: in vitro ADME; details: pH 7.4, 10 μmol, 20 hours at room temperature, mean of multiple measurements, read-out: PAMPA passive permeability Pe
Method: Passive membrane permeability of the compounds described in the present invention was determined using the PAMPA (parallel artificial membrane permeability assay) model at pH 7.4.
We used a 96-well plate (Corning® BioCoat® Pre-coated PAMPA Plate System, order no. 353015), composed of acceptor and donor parts with cell membrane-modeling PVDF filter pre-impregnated with a lecithin-phospholipid bilayer. The substance (at a concentration of 10 μmol) in a 0.01 M phosphate buffer with pH 7.4 was introduced into a donor well of the plate, and pure buffer was introduced into an acceptor well; afterwards, the both parts were combined and incubated for 20 hours at room temperature so that the compound was redistributed between the two wells and the membrane. Verapamil (USP, USA, order no. 1711202) and propranolol (MCE LLC, USA, cat. no. HY-B0573/CS-2680) were used as control compounds with high and medium permeability. Samples were analyzed by reversed-phase HPLC with UV detection (Agilent 1260 chromatograph with UV detector) by determining their peak areas in the donor and acceptor wells.
Permeability (Pe, cm/s) and retention factor (R, %) in the lipid bilayer were calculated using the formula:
[formula] [formula] • Co is donor-well concentration of the substance at the initial moment of time t (μM); • CA (t) is acceptor-well concentration of the substance at time t (μM); • Vd is donor-well volume (0.3 ml); • Va is acceptor-well volume (0.15 ml).
[formula] • A is filter area (0.3 cm^2); • t is incubation time (72000 s);

Sequence of CDK7/Cyclin H/MNAT1 (P50613 whole entry): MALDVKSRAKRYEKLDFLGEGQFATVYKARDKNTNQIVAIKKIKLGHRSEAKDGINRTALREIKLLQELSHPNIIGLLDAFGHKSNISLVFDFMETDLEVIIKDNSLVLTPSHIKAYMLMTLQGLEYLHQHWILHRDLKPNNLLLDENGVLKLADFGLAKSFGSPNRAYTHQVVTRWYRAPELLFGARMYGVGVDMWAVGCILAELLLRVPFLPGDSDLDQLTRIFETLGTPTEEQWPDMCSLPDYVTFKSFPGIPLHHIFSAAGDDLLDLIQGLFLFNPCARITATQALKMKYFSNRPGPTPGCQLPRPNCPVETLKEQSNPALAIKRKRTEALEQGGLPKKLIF
Sequence of CDK7/Cyclin H/MNAT1 (P51946 whole entry partner): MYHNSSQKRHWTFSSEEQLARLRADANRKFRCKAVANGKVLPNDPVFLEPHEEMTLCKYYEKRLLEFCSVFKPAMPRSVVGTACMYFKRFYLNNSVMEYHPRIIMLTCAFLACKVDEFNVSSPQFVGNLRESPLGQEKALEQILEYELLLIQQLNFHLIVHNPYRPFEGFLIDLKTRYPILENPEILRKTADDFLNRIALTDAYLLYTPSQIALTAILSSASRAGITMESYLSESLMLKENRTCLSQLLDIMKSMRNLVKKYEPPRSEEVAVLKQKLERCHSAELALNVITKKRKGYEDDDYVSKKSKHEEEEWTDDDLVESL
Sequence of CDK7/Cyclin H/MNAT1 (P51948 whole entry partner): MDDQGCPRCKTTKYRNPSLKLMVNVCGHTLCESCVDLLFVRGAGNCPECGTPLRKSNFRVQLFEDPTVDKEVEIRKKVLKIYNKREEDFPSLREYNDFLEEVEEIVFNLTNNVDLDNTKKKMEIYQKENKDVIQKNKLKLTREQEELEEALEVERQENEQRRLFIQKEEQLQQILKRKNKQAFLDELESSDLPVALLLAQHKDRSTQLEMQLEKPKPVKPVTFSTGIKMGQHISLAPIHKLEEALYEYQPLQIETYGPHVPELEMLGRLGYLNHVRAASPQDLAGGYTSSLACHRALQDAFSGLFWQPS

Structure (SMILES) | IC50 (CDK7/Cyclin H/MNAT1) | IC50 (CDK2/Cyclin A) | IC50 (CDK9/Cyclin K) | IC50 [1] | IC50 [2] | CC50 at 72 h [3] | Papp at 20 h, 10 μmol [4]
O=C1NCCc2c(-c3nc(N[C@H]4CCCNC4)ncc3C(F)(F)F)c[nH]c21 [CDK7_814, 3-(2-{[(3S)-piperidin-3-yl]amino}-5-(trifluoromethyl)pyrimidin-4-yl)-1H,4H,5H,6H, 7H-pyrrolo[2,3-c]pyridin-7-one] | < 5 nM | > 200 nM | 50 to 200 nM | 10 to 100 nM | 10 to 100 nM | 500 to 2000 nM | < 1 ×10⁻⁶ cm/s
O=C(Nc1ccc(N2CCOCC2)cc1)c1cc(-c2nc(N[C@H]3CCCNC3)ncc2C(F)(F)F)c[nH]1 [CDK7_838, N-[4-(morpholin-4-yl)phenyl]-4-(2-{[(3S)-piperidin-3-yl]amino}-5-(trifluoromethyl)pyrimidin-4-yl)-1H-pyrrole-2-carboxamide] | 5 to 50 nM | > 200 nM | 50 to 200 nM | 100 to 1000 nM | 100 to 1000 nM | 500 to 2000 nM | 
Cn1ccc2c(-c3nc(N[C@H]4CCCNC4)ncc3C(F)(F)F)c[nH]c2c1=O [CDK7_845, 6-methyl-3-(2-{[(3S)-piperidin-3-yl]amino}-5-(trifluoromethyl)pyrimidin-4-yl)-1H,6H,7H-pyrrolo[2,3-c]pyridin-7-one] | < 5 nM | > 200 nM | 5 to 50 nM | < 10 nM | < 10 nM | 100 to 500 nM | < 1 ×10⁻⁶ cm/s
CN1CC=Cc2c(-c3nc(N[C@H]4CCCNC4)ncc3C(F)(F)F)c[nH]c2C1=O [CDK7_929] | < 5 nM | > 200 nM | 5 to 50 nM | < 10 nM | < 10 nM | 100 to 500 nM | < 1 ×10⁻⁶ cm/s
O=C(NC1CC1)c1cc(-c2nc(N[C@H]3CCCNC3)ncc2C(F)(F)F)c[nH]1 [CDK7_951, N-cyclopropyl-4-(2-{[(3S)-piperidin-3-yl]amino}-5-(trifluoromethyl)pyrimidin-4-yl)-1H-pyrrole-2-carboxamide] | < 5 nM | > 200 nM | 5 to 50 nM | 10 to 100 nM |  | 500 to 2000 nM | < 1 ×10⁻⁶ cm/s
Cn1nnnc1-c1cc(-c2nc(N[C@H]3CCCNC3)ncc2C(F)(F)F)c[nH]1 [CDK7_999, 4-[5-(1-methyl-1H-1,2,3,4-tetrazol-5-yl)-1H-pyrrol-3-yl]-N-[(3S)-piperidin-3-yl]-5-(trifluoromethyl) pyrimidin-2-amine] | < 5 nM | > 200 nM | 5 to 50 nM | 10 to 100 nM | 100 to 1000 nM | 500 to 2000 nM | < 1 ×10⁻⁶ cm/s

Reference: patent publication US20260137698A1, “CYCLIN-DEPENDENT KINASE 7 INHIBITORS” (JOINT STOCK COMPANY «BIOCAD», priority 2022, published 2026)
